Patent publication US20130317027A1, “COMPOUNDS AND THERAPEUTIC USES THEREOF” (Myrexis, Inc, priority 2010, published 2013)

Key:
[1] = test system: cell lines (cancer, normal and primary cells); experiment: NA Rescue assay (cytotoxicity with nicotinic acid added); format: cell-based; settings: fixed dose
Method: Cell lines were treated with a fixed dose of Exemplary Compound A and screened for NA rescue and Naprt1 expression by immunoblotting and quantitative RT-PCR (Table 7). […] The 176 cell lines included 5 normal (non-cancerous) cells and 3 primary cells (italicized in the table), all of which rescued. Naprt1 was quantified by western blotting and q-RT-PCR in 164 and 123 of the 176 cell lines, respectively. […] A statistically significant (p value <0.0001) correlation existed between NA rescue phenotype and Naprt1 protein or mRNA expression levels.
Additional cancer cell lines were treated with Exemplary Compounds A, C, D, E, F, G and H (identified below) (Table 8). The NA rescue phenotype of a particular cancer cell line was maintained for all Nampt inhibitors tested.

MDA-MB-436 cells = experiment: Synergy between Nampt inhibitors and the PARP inhibitor olaparib in BRCA1-deficient cells; format: cell-based; settings: loss of BRCA1 function
Method: Experiments were conducted in HCT116 cells.
This was not fully unexpected, as PARP inhibitors are relatively benign to cells (like HCT116 cells) that have a functional homologous recombination (HR) system to repair double stranded DNA damage (Ashworth A. Journal of Clinical Oncology 26(22):3785-90 (2008)). In fact, the model (FIG. 1A) predicts that inhibiting an enzyme, such as PARP, that consumes NAD^+ would protect HR-proficient cells from Nampt inhibition. However, in cells that have lost the function of BRCA tumor suppressors, HR function is compromised, and these cells are killed by PARP inhibitors (Ashworth A. (2008) Journal of Clinical Oncology 26(22):3785-90). Thus, it was hypothesized that PARP inhibitors, while being antagonistic with Nampt inhibitors in most cells, would be synergistic in cells with BRCA mutations that render the cells HR-deficient (FIG. 1B). Indeed, in MDA-MB-436 cells, which have a loss of BRCA1 function, Nampt inhibitors (a known Nampt inhibitor, Exemplary Compound A and Exemplary Compound I, both Exemplary Compounds identified hereinafter) and the PARP inhibitor olaparib synergized in causing cell death. […] Of further significance to these findings, it is becoming clear that other routes of HR deficiency in oncogenesis (other than BRCA sequence mutation) could also lead to sensitivity to PARP inhibition plus Nampt inhibitor combination therapy. […]

[2] = test system: Cancer cell lines (SCLC, glioma, colon cancer and others)
Method: Experiments were conducted in HCT116 cells. […] For compound combination analyses, the MacSynergy™ II protocol and program were utilized, following the recommendations of the developers (Prichard and Shipman, 1990). Prior to combinations of compounds, dose curves of cells treated with a single compound were generated to define relevant compound doses to use in the combination analysis. Typically, relevant doses were those found in the inflection portion of a sigmoidal dose-response curve. Utilizing these optimized conditions, cells were dosed with Nampt inhibitor plus the test compound at a variety of concentrations of each, and viability was assessed using CellTiter-Glo. Data was processed using the MacSynergy™ II algorithm, which subtracted from actual data a prediction of compound additivity. Thresholds for meaningful synergy were defined based upon the recommendations of the developers (Prichard and Shipman, 1990).
Cancer cell lines used in these studies represented cancer types found to be sensitive to Nampt inhibition [e.g. non-Hodgkins lymphoma, multiple myeloma, glioma, non-small cell lung carcinoma (NSCLC), small cell lung carcinoma (SCLC), ovarian cancer and colorectal cancer].

O=C(NCc1cccnc1)Nc1ccc(COc2ccccc2-c2ccccc2)cc1 [Exemplary Compound A]
NA rescue ([1]; A549 cells, lung (NSCLC)): yes
NA rescue ([1]; ACHN cells, kidney): yes
NA rescue ([1]; AsPC-1 cells, pancreas): yes
NA rescue ([1]; BEAS-2B cells, lung (normal)): yes
NA rescue ([1]; BT-474 cells, breast): yes
NA rescue ([1]; BxPC-3 cells, pancreas): yes
NA rescue ([1]; CCRF-CEM cells, lymphocytic leukemia): yes
NA rescue ([1]; CFPAC-1 cells, pancreas): yes
NA rescue ([1]; CHLA-90 cells, brain, neuroblastoma): no
NA rescue ([1]; Calu-1 cells, lung (NSCLC)): yes
NA rescue ([1]; Calu-6 cells, lung (NSCLC)): yes
NA rescue ([1]; Capan-1 cells, pancreas): yes
NA rescue ([1]; DBTRG-05MG cells, brain, glioblastoma): yes
NA rescue ([1]; DEL cells, lymphoma): partial
NA rescue ([1]; DU145 cells, prostate): yes
NA rescue ([1]; DU4475 cells, breast): yes
NA rescue ([1]; Daoy cells, brain, medulloblastoma): yes
NA rescue ([1]; Daudi cells, lymphoma): no
NA rescue ([1]; EKVX cells, lung (NSCLC)): yes
NA rescue ([1]; H4 cells, brain, neuroglioma): partial
NA rescue ([1]; H9 cells, lymphoma): no
NA rescue ([1]; HCC78 cells, lung (NSCLC)): no
NA rescue ([1]; HOP18 cells, lung (NSCLC)): yes
NA rescue ([1]; HOP62 cells, lung (NSCLC)): yes
NA rescue ([1]; HOP92 cells, lung (NSCLC)): yes
NA rescue ([1]; HOS cells, osteosarcoma): no
NA rescue ([1]; HepG2 cells, hepatocellular carcinoma): no
NA rescue ([1]; Hs683 cells, brain, glioma): yes
NA rescue ([1]; Hs766T cells, pancreas): yes
NA rescue ([1]; Huh7 cells, hepatocellular carcinoma): yes
NA rescue ([1]; IMR-32 cells, brain, neuroblastoma): no
NA rescue ([1]; IMR-90 cells, lung (normal)): yes
NA rescue ([1]; JJN3 cells, myeloma (plasma cell leukemia)): yes
NA rescue ([1]; Jurkat cells, lymphocytic leukemia): yes
NA rescue ([1]; KARPAS-299 cells, lymphocytic leukemia): no
NA rescue ([1]; KELLY cells, brain, oligodendroglioma): no
NA rescue ([1]; KNS-42 cells, brain, glioma): no
NA rescue ([1]; L-82 cells, lymphoma): yes
NA rescue ([1]; LA-N-6 cells, brain, neuroblastoma): yes
NA rescue ([1]; LNCAP cells, prostate): yes
NA rescue ([1]; M059J cells, brain, malignant glioblastoma, glioma): no
NA rescue ([1]; MALME-3 cells, skin (normal)): yes
NA rescue ([1]; MG-63 cells, osteosarcoma): no
NA rescue ([1]; MM.1S cells, myeloma): yes
NA rescue ([1]; MOLP-8 cells, myeloma): partial
NA rescue ([1]; MOLT4 cells, lymphocytic leukemia): yes
NA rescue ([1]; MONO-MAC-6 cells, lymphocytic leukemia): partial
NA rescue ([1]; MRC-5 cells, lung (normal)): yes
NA rescue ([1]; NAMALWA cells, lymphoma): no
NA rescue ([1]; NCI-H23 cells, lung (NSCLC)): yes
NA rescue ([1]; NCI-H69 cells, lung (small cell)): no
NA rescue ([1]; NCI-H146 cells, lung (small cell)): yes
NA rescue ([1]; NCI-H209 cells, lung (small cell)): yes
NA rescue ([1]; NCI-H226 cells, lung (NSCLC)): yes
NA rescue ([1]; NCI-H322 cells, lung (NSCLC)): no
NA rescue ([1]; NCI-H345 cells, lung (small cell)): yes
NA rescue ([1]; NCI-H441 cells, lung (NSCLC)): yes
NA rescue ([1]; NCI-H596 cells, lung (NSCLC)): partial
NA rescue ([1]; NCI-H1299 cells, lung (NSCLC)): yes
NA rescue ([1]; NCI-H1437 cells, lung (NSCLC)): yes
NA rescue ([1]; NCI-H1568 cells, lung (NSCLC)): yes
NA rescue ([1]; NCI-H1792 cells, lung (NSCLC)): yes
NA rescue ([1]; NCI-H1944 cells, lung (NSCLC)): yes
NA rescue ([1]; NCI-H1993 cells, lung (NSCLC)): yes
NA rescue ([1]; OVCAR-3 cells, ovary): yes
NA rescue ([1]; PBMC, primary blood): yes
NA rescue ([1]; PFSK-1 cells, brain, malignant neuroectodermal tumor): partial
NA rescue ([1]; Panc-1 cells, pancreas): yes
NA rescue ([1]; RPMI-8226 cells, myeloma): partial
NA rescue ([1]; Ramos cells, lymphoma): yes
NA rescue ([1]; SAEC, primary lung): yes
NA rescue ([1]; SF-268 cells, brain, astrocytoma, anaplastic): no
NA rescue ([1]; SF-539 cells, brain, gliosarcoma): yes
NA rescue ([1]; SH-SY5Y cells, brain, neuroblastoma, bone marrow met.): no
NA rescue ([1]; SHP-77 cells, lung (small cell)): yes
NA rescue ([1]; SJSA1 cells, osteosarcoma): yes
NA rescue ([1]; SK-ES-1 cells, osteosarcoma): yes
NA rescue ([1]; SK-N-FI cells, brain, neuroblastoma, bone marrow met.): no
NA rescue ([1]; SK-N-MC cells, brain, neuroepithelioma, supra-orbital met.): no
NA rescue ([1]; SK-N-SH cells, brain, neuroblastoma, metastatic): no
NA rescue ([1]; SMS-KCNR cells, brain, neuroblastoma, ALK (R1275Q).): yes
NA rescue ([1]; SNB-19 cells, brain, glioblastoma): no
NA rescue ([1]; SNU182 cells, hepatocellular carcinoma): yes
NA rescue ([1]; SNU449 cells, hepatocellular carcinoma): yes
NA rescue ([1]; SR-786 cells, lymphoma): no
NA rescue ([1]; SU-DHL-1 cells, lymphoma): no
NA rescue ([1]; SU-DHL-10 cells, lymphoma): yes
NA rescue ([1]; SW1088 cells, brain, astrocytoma): yes
NA rescue ([1]; SW1783 cells, brain, astrocytoma): yes
NA rescue ([1]; Saos-2 cells, osteosarcoma): yes
NA rescue ([1]; T24 cells, bladder): yes
NA rescue ([1]; THP-1 cells, lymphocytic leukemia): yes
NA rescue ([1]; U251 cells, brain, glioblastoma): no
NA rescue ([1]; U-2 OS cells, osteosarcoma): no
NA rescue ([1]; U-937 cells, lymphoma): yes
NA rescue ([1]; UWB1.289 cells, ovary): yes
NA rescue ([1]; Wi-38 cells, lung (normal)): yes
cell lines that completely rescued with NA ([1]; of 176 cell lines tested): 113
cell lines that did not rescue with NA ([1]; of 176 cell lines tested): 47
cell lines that partially rescued with NA ([1]; of 176 cell lines tested): 16
NA rescue ([1]; keratinocytes, primary skin): yes
NA rescue ([1]; no. 10 cells, brain, glioma, anaplastic): no
NA rescue ([1]; no. 11 cells, brain, glioma, anaplastic): partial
drug interaction with the PARP inhibitor olaparib in causing cell death (MDA-MB-436 cells): synergized
cytotoxicity in combination with 4HC [2]: Synergistic cytotoxicity
cytotoxicity in combination with 5-FU [2]: Synergistic cytotoxicity
cytotoxicity in combination with temozolomide [2]: Synergistic cytotoxicity
